# Assay results: publication PMC6976587, “Conversion of Broad-Spectrum Antimicrobial Peptides into Species-Specific Antimicrobials Capable of Precisely Targeting Pathogenic Bacteria” (Scientific Reports, 2020)
# Residues, ends and D or L forms follow the SMILES beside them.
# How the values were obtained:
# S. aureus ATCC 29213 = assay type: cell-based, Staphylococcus aureus; settings: ATCC 29213, 16 h
# Protocol: (§1) The antimicrobial activities of the peptides were investigated against the following bacteria: E. faecalis ATCC 29212, S. epidermidis ATCC 12228, S. aureus ATCC 29213, E. coli ATCC 25922, S. typhimurium […] and S. Pullorum […]. The MICs of the peptides were determined using a modified standard microtiter dilution method as described previously[29],[38]. Briefly, the microbial strains were cultured in MHB at 37 °C to reach mid-log phase and then diluted to 0.5-1×10^6 CFU/ml. 50 μL volumes of bacteria suspension were incubated in sterile 96-well plates with 50 μl of 2-fold serially diluted peptides at different concentrations (0.25-128 μM). Cultures with or without bacterial cells was employed as positive and negative controls, respectively. […] Each measurement was reproduced at least four times using three replicates.
# [1] = system: S. epidermidis ATCC 12228; assay type: cell-based, Staphylococcus epidermidis; settings: ATCC 12228, 16 h
# Protocol: as §1
# S. Pullorum C7913 = assay type: cell-based, Salmonella Pullorum; settings: C7913, 16 h
# Protocol: as §1
# S. typhimurium C7731 = assay type: cell-based, Salmonella typhimurium; settings: C7731, 16 h
# Protocol: as §1
# E. faecalis ATCC 29212 = assay type: cell-based, Enterococcus faecalis; settings: ATCC 29212, 16 h
# Protocol: as §1
# E. coli ATCC 25922 = assay type: cell-based, Escherichia coli; settings: ATCC 25922, 16 h
# Protocol: as §1
Structure (SMILES),MIC (μM) Gram-positive S. aureus 1005 (S. aureus ATCC 29213),MIC (μM) Gram-positive S. epidermidis 7913 [1],MIC (μM) Gram-negative S. Pullorum 43300 (S. Pullorum C7913),MIC (μM) Gram-negative S. typhimurium 29213 (S. typhimurium C7731),MIC (μM) Gram-positive E. faecalis 25922 (E. faecalis ATCC 29212),MIC (μM) Gram-negative E. coli 12228 (E. coli ATCC 25922)
NCCCC[C@H](NC(=O)CNC(=O)[C@H](CC(N)=O)NC(=O)[C@H](CCC(=O)O)NC(=O)[C@H](Cc1c[nH]c2ccccc12)NC(=O)[C@H](CCCCN)NC(=O)[C@H](Cc1c[nH]c2ccccc12)NC(=O)[C@H](CCCCN)NC(=O)[C@@H](N)Cc1c[nH]c2ccccc12)C(=O)N[C@@H](Cc1c[nH]c2ccccc12)C(=O)N[C@@H](CCCCN)C(=O)N[C@@H](Cc1c[nH]c2ccccc12)C(=O)N[C@@H](CCC(N)=O)C(=O)N[C@@H](Cc1c[nH]c2ccccc12)C(=O)O [C3] (H-WKWKWENGKWKWQW-OH),>128 µM,>128 µM,16 µM,64 µM,>128 µM,32 µM
NCCCC[C@H](NC(=O)CNC(=O)[C@H](CC(N)=O)NC(=O)[C@H](CCC(=O)O)NC(=O)[C@H](Cc1c[nH]c2ccccc12)NC(=O)[C@H](CCCCN)NC(=O)[C@H](Cc1c[nH]c2ccccc12)NC(=O)[C@H](CCCCN)NC(=O)[C@@H](N)Cc1c[nH]c2ccccc12)C(=O)N[C@@H](Cc1c[nH]c2ccccc12)C(=O)N[C@@H](CCCCN)C(=O)N[C@@H](Cc1c[nH]c2ccccc12)C(=O)N[C@@H](CCCCN)C(=O)N[C@@H](Cc1c[nH]c2ccccc12)C(=O)O [C4] (H-WKWKWENGKWKWKW-OH),32 µM,32 µM,8 µM,32 µM,64 µM,2 µM
CC(C)C[C@H](NC(=O)CNC(=O)CNC(=O)CNC(=O)[C@H](Cc1c[nH]c2ccccc12)NC(=O)[C@H](CCCCN)NC(=O)[C@H](Cc1c[nH]c2ccccc12)NC(=O)[C@H](CCCCN)NC(=O)[C@H](Cc1c[nH]c2ccccc12)NC(=O)[C@H](CCCCN)NC(=O)CNC(=O)[C@H](CC(N)=O)NC(=O)[C@H](CCCCN)NC(=O)[C@H](Cc1c[nH]c2ccccc12)NC(=O)[C@H](CCCCN)NC(=O)[C@H](Cc1c[nH]c2ccccc12)NC(=O)[C@H](CCCCN)NC(=O)[C@@H](N)Cc1c[nH]c2ccccc12)C(=O)N[C@H](C(=O)N[C@H](C(=O)N[C@@H](CC(C)C)C(=O)N[C@H](C(=O)N[C@@H](Cc1ccccc1)C(=O)N[C@H](C(=O)O)C(C)C)C(C)C)[C@@H](C)O)C(C)C [C6-cCF10] (H-WKWKWKNGKWKWKWGGGLVTLVFV-OH),8 µM,32 µM,8 µM,>128 µM,16 µM,2 µM
"CC(C)C[C@H](NC(=O)[C@H](CCCNC(=N)N)NC(=O)CNC(=O)CNC(=O)[C@@H](N)CCCNC(=N)N)C(=O)N[C@H]1CSSC[C@@H](C(=O)N[C@H](C(=O)NCC(=O)N[C@@H](CCCNC(=N)N)C(N)=O)C(C)C)NC(=O)[C@H](C(C)C)NC(=O)[C@@H]2CSSC[C@H](NC(=O)[C@H](Cc3ccc(O)cc3)NC1=O)C(=O)N[C@@H](CCCNC(=N)N)C(=O)N[C@@H](CCCNC(=N)N)C(=O)N[C@@H](CCCNC(=N)N)C(=O)N[C@@H](Cc1ccccc1)C(=O)N2 [PG-1, reference compound]",8 µM,16 µM,8 µM,8 µM,4 µM,2 µM
"CC(C)C[C@H](NC(=O)[C@@H](NC(=O)[C@@H](NC(=O)[C@@H](N)CC(C)C)C(C)C)[C@@H](C)O)C(=O)N[C@H](C(=O)N[C@@H](Cc1ccccc1)C(=O)N[C@H](C(=O)O)C(C)C)C(C)C [cCF10, reference compound] (H-LVTLVFV-OH)",>128 µM,>128 µM,>128 µM,>128 µM,>128 µM,>128 µM
CC(C)C[C@H](NC(=O)[C@@H](NC(=O)[C@@H](NC(=O)[C@@H](N)CC(C)C)C(C)C)[C@@H](C)O)C(=O)N[C@H](C(=O)N[C@@H](Cc1ccccc1)C(=O)N[C@H](C(=O)NCC(=O)NCC(=O)NCC(=O)N[C@@H](Cc1c[nH]c2ccccc12)C(=O)N[C@@H](CCCCN)C(=O)N[C@@H](Cc1c[nH]c2ccccc12)C(=O)N[C@@H](CCCCN)C(=O)N[C@@H](Cc1c[nH]c2ccccc12)C(=O)N[C@@H](CCC(=O)O)C(=O)N[C@@H](CC(N)=O)C(=O)NCC(=O)N[C@@H](CCCCN)C(=O)N[C@@H](Cc1c[nH]c2ccccc12)C(=O)N[C@@H](CCCCN)C(=O)N[C@@H](Cc1c[nH]c2ccccc12)C(=O)N[C@@H](CCC(N)=O)C(=O)N[C@@H](Cc1c[nH]c2ccccc12)C(=O)O)C(C)C)C(C)C [cCF10-C3] (H-LVTLVFVGGGWKWKWENGKWKWQW-OH),>128 µM,>128 µM,>128 µM,>128 µM,>128 µM,>128 µM
CC(C)C[C@H](NC(=O)[C@@H](NC(=O)[C@@H](NC(=O)[C@@H](N)CC(C)C)C(C)C)[C@@H](C)O)C(=O)N[C@H](C(=O)N[C@@H](Cc1ccccc1)C(=O)N[C@H](C(=O)NCC(=O)NCC(=O)NCC(=O)N[C@@H](Cc1c[nH]c2ccccc12)C(=O)N[C@@H](CCCCN)C(=O)N[C@@H](Cc1c[nH]c2ccccc12)C(=O)N[C@@H](CCCCN)C(=O)N[C@@H](Cc1c[nH]c2ccccc12)C(=O)N[C@@H](CCC(=O)O)C(=O)N[C@@H](CC(N)=O)C(=O)NCC(=O)N[C@@H](CCCCN)C(=O)N[C@@H](Cc1c[nH]c2ccccc12)C(=O)N[C@@H](CCCCN)C(=O)N[C@@H](Cc1c[nH]c2ccccc12)C(=O)N[C@@H](CCCCN)C(=O)N[C@@H](Cc1c[nH]c2ccccc12)C(=O)O)C(C)C)C(C)C [cCF10-C4] (H-LVTLVFVGGGWKWKWENGKWKWKW-OH),>128 µM,>128 µM,>128 µM,>128 µM,8 µM,64 µM
CC(C)C[C@H](NC(=O)[C@@H](NC(=O)[C@@H](NC(=O)[C@@H](N)CC(C)C)C(C)C)[C@@H](C)O)C(=O)N[C@H](C(=O)N[C@@H](Cc1ccccc1)C(=O)N[C@H](C(=O)NCC(=O)NCC(=O)NCC(=O)N[C@@H](Cc1c[nH]c2ccccc12)C(=O)N[C@@H](CCCCN)C(=O)N[C@@H](Cc1c[nH]c2ccccc12)C(=O)N[C@@H](CCCCN)C(=O)N[C@@H](Cc1c[nH]c2ccccc12)C(=O)N[C@@H](CCCCN)C(=O)N[C@@H](CC(N)=O)C(=O)NCC(=O)N[C@@H](CCCCN)C(=O)N[C@@H](Cc1c[nH]c2ccccc12)C(=O)N[C@@H](CCCCN)C(=O)N[C@@H](Cc1c[nH]c2ccccc12)C(=O)N[C@@H](CCCCN)C(=O)N[C@@H](Cc1c[nH]c2ccccc12)C(=O)O)C(C)C)C(C)C [cCF10-C6] (H-LVTLVFVGGGWKWKWKNGKWKWKW-OH),32 µM,32 µM,16 µM,>128 µM,4 µM,4 µM
CC[C@H](C)[C@H](NC(=O)[C@H](Cc1ccccc1)NC(=O)[C@H](CS)NC(=O)[C@@H](NC(=O)[C@H](CO)NC(=O)[C@@H](N)Cc1ccc(O)cc1)[C@@H](C)O)C(=O)N[C@@H](CCSC)C(=O)NCC(=O)NCC(=O)NCC(=O)N[C@@H](Cc1c[nH]c2ccccc12)C(=O)N[C@@H](CCCCN)C(=O)N[C@@H](Cc1c[nH]c2ccccc12)C(=O)N[C@@H](CCCCN)C(=O)N[C@@H](Cc1c[nH]c2ccccc12)C(=O)N[C@@H](CCC(=O)O)C(=O)N[C@@H](CC(N)=O)C(=O)NCC(=O)N[C@@H](CCCCN)C(=O)N[C@@H](Cc1c[nH]c2ccccc12)C(=O)N[C@@H](CCCCN)C(=O)N[C@@H](Cc1c[nH]c2ccccc12)C(=O)N[C@@H](CCCCN)C(=O)N[C@@H](Cc1c[nH]c2ccccc12)C(=O)O [random-C4] (H-YSTCFIMGGGWKWKWENGKWKWKW-OH),>128 µM,>128 µM,>128 µM,>128 µM,>128 µM,32 µM
